Tests used:
[1] = test system: pigs with ventricular fibrillation; test: Potassium chloride cardioplegia during heart compressions in pigs with induced ventricular fibrillation; type: in vivo, pig; settings: for development of stone heart: pigs, induced ventricular fibrillation, continuous infusion of potassium chloride, heart compressions for 1 hour
Description: Due to the access to the new external chest compression machine, “Lucas”, we have run extensive experiments in pigs. Until now we have run experiments in 5 years and used over 800 pigs. This new machine is much more efficient than manual compression of the chest. About 30% of the pigs with ventricular fibrillation survived 1 hour of external heart massage with the machine in normothermia. With manual compression no pigs survived 15 minutes. […] We noticed that this started to happen after 15 minutes.
The idea then came up that if cardioplegia is induced to the heart during heart arrest, it would be possible to eliminate this stone heart condition and make 100% of the hearts survive 60 minutes of heart compression. In clinical heart surgery we routinely use potassium to accomplish depolarisation and cardioplegia. We induced ventricular fibrillation in pigs and then induced cardioplegia in the form of potassium chloride into a central venous needle or even directly into the left ventricle, thereby inducing cardioplegia. By a continuous infusion of potassium chloride we kept the heart in a cardioplegic condition. […] After 60 minutes we cannulated the pig in the femoral artery and vein and established an extracorporeal membrane oxygenation (ECMO). […] When cardioplegia is induced in a heart at normotermia, 90% of the need for oxygen is eliminated, and the heart is arrested in a relaxed condition. Such a heart is very easy to perform external or internal heart massage on.

[2] = test system: pigs with electrically induced ventricular fibrillation; test: Internal cardiopulmonary resuscitation by continuous left ventricle infusion of potassium chloride, followed by V-A ECMO; type: in vivo
Description: The purpose of the experiment was to evaluate the effects of continuous potassium chloride infusion during internal CPR with a catheter inserted into the left ventricle and to investigate the need for ECMO (extracorporeal membrane oxygenation) after high dose potassium chloride treatment during CPR, to obtain return of ROSC after prolonged CPR.
The haemodynamic parameters continuously was measured and stored as mean values every 5 second. Blood gases was analyzed with a Radiometer™ ABL 555® blood gas machine. Drug administration (Addex® potassium 4 mmol/ml, Fresenius Kabi, Uppsala, Sweden. 40 mg/ml papaverin, NM Pharma, Stockholm, Sweden.) during CPR was given according a specific protocol.
The following data parameters were measured and stored as mean values every 5 seconds throughout the experiment:
ECG, arterial pressure (SAP/MAP/DAP), central venous pressure (CVP), coronary perfusion pressure (CPP), carotid flow (CF), temperature, urine production (every 15 min), and blood gases.
The blood gas (Radiometer™, ABL 555®) data parameter were measured and stored intermittently or written down by hand throughout the experiment.
Electrically ventricular fibrillation was induced electrically in healthy test pigs (25-80 kg in body weight) at normothermic conditions (a body temperature of 38° C.). After 90 seconds of untreated ventricular fibrillation internal heart massage started manually and continued for 60 min. At the same time a booster injection of 10 ml potassium (Addex® potassium 4 mmol/ml, Fresenius Kabi, Uppsala, Sweden) and 3 ml papaverin sulfate (Papaverin 40 mg/ml, NM Pharma, Stockholm, Sweden) was given. Directly after a potassium infusion (Addex® potassium 4 mmol/ml, Fresenius Kabi, Uppsala, Sweden) was started (100 ml/h for 20 min, 50 ml/h for 20 min, 20 ml/h for 20 min). […] After 60 minutes of resuscitation V-A (venoarterial) ECMO was established and by ultrafiltration the serum potassium ion concentration was reduced towards normal levels.
After the 6-hour test period, the animal was put to death with a euthanasia solution.

## [Cl-].[K+] [potassium chloride]
[1]; after 60 minutes of heart compressions, ECMO via femoral artery and vein
  return of spontaneous heart beat after potassium chloride washed away by filtration: the heart started to beat spontaneously again
[1]; experimental animal with acute ventricular fibrillation, after one hour of heart massage
  recovery of hearts after heart massage: possible to recover all hearts
[1]
  development of stone heart: without the development of stone heart
[1]; listed as potassium
  development of stone heart: eliminates the development of stone heart
[2]; 25 kg Swedish domestic pig, Exp. Time 2:22:01, after stop K at 2:18:38, on bypass
  Event: heart beating: spontaneously
[2]; 25 kg Swedish domestic pig, Exp. Time 4:29:33, after off bypass at 3:42:43
  Event: urine production: normal urine
[2]; after 1 h of CPR in combination with potassium administration followed by ECMO, FIG. 1
  heart rhythm / ROSC: ROSC came into effect

Source: patent US7270833B2, “Cardioplegic solution” (Jolife AB, priority 2000, dated 2007)
